Results reported in ChEMBL document CHEMBL3817761, “Chenopodium album metabolites act as dual topoisomerase inhibitors and induce apoptosis in the MCF7 cell line” (Medchemcomm, 2016).
Activity calls are given as the source filed them. The calls are words filed in the database; no cut-off is given here.

What was measured:
[1] = target: DNA topoisomerase 2-alpha (Homo sapiens) (UniProt P11388); test: Poisoning activity at topoisomerase 2 in human MCF7 cells at 10 uM after 12 hrs by immunoband depletion assay; type: cell-based
[2] = target: T1, DNA topoisomerase 1 (Homo sapiens) (UniProt P11387); test: Poisoning activity at topoisomerase 1 in human MCF7 cells at 10 uM after 12 hrs by immunoband depletion assay; type: cell-based
T1 sequence (whole entry): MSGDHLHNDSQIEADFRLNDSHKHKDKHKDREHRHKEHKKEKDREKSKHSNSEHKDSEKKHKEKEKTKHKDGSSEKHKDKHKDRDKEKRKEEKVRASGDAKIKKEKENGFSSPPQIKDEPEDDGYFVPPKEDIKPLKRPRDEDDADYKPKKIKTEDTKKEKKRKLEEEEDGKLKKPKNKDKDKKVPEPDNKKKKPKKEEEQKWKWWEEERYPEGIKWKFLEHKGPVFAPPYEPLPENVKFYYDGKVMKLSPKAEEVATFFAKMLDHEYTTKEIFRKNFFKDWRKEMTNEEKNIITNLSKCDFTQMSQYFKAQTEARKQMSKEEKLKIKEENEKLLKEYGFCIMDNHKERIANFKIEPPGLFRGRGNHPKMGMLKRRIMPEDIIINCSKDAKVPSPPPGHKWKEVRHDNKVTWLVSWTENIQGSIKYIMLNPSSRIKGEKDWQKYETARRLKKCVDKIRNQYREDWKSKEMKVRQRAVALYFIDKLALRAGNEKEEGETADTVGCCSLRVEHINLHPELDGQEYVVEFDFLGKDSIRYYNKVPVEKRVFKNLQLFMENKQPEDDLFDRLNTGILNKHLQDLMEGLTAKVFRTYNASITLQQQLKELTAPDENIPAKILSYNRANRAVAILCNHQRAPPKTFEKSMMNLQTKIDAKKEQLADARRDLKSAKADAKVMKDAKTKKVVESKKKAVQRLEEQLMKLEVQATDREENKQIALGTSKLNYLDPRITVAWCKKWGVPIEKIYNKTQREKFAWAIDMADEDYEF

MCF7 [3] = test: Induction of mitochondrial membrane depolarization in human MCF7 cells after 24 to 48 hrs by JC-1 staining based FACS assay (reference value: 9.9%); type: functional
MCF7 [4] = test: Induction of mitochondrial membrane depolarization in human MCF7 cells assessed as ratio of red to green fluorescence after 24 to 48 hrs by JC-1 staining based FACS assay (reference value: 9.1); type: functional

Sequence of DNA topoisomerase 2-alpha (Homo sapiens) (P11388 whole entry): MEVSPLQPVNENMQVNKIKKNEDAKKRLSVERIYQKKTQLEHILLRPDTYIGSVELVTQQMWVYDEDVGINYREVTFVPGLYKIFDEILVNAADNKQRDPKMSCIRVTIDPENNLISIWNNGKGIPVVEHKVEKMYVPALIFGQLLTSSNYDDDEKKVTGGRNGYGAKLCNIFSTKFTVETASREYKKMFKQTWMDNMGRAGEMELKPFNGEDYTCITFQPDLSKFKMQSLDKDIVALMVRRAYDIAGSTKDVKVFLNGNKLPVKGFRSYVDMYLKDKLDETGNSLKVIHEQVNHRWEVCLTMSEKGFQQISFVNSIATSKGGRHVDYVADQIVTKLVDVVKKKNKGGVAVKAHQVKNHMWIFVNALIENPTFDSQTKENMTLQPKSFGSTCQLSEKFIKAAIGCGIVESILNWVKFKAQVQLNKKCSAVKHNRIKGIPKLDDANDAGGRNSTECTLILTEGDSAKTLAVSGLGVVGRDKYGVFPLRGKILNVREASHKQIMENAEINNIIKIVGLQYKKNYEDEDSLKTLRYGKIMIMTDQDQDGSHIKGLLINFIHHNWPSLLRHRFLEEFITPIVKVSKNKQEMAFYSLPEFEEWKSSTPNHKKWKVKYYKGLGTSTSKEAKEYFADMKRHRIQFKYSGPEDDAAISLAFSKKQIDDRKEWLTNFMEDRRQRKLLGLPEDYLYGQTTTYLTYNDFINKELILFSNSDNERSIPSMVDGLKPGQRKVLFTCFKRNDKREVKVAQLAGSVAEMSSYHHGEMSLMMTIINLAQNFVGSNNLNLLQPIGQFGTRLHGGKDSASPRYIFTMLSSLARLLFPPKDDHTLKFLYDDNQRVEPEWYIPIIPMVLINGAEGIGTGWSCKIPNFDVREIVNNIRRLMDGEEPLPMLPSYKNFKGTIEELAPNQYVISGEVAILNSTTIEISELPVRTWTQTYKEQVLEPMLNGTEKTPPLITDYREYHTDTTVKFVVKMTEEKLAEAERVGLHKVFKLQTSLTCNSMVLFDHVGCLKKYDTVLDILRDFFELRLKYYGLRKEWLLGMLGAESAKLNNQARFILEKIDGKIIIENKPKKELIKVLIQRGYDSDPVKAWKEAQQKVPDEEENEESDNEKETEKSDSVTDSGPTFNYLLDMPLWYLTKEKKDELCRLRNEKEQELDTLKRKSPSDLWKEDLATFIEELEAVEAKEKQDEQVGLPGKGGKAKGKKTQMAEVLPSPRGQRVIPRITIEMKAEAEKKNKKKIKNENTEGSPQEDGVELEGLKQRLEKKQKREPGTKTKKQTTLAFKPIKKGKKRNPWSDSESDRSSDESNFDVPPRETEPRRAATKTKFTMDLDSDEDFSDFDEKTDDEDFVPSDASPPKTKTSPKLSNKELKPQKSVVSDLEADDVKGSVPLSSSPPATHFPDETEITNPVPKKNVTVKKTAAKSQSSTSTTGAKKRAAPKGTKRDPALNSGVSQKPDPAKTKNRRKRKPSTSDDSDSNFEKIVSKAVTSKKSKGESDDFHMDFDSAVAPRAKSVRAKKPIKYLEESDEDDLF

COc1cc([C@@H]2c3cc4c(cc3[C@@H](O[C@@H]3O[C@@H]5CO[C@@H](C)O[C@H]5[C@H](O)[C@H]3O)[C@H]3COC(=O)[C@H]23)OCO4)cc(OC)c1O
Activity [1]: Active

CC[C@@]1(O)C(=O)OCc2c1cc1n(c2=O)Cc2cc3ccccc3nc2-1
Activity [2]: Active

N#CC(C#N)=NNc1cccc(Cl)c1 [CARBONYL CYANIDE M-CHLOROPHENYLHYDRAZONE]
Activity (MCF7 [3]): 98.8%
Ratio (MCF7 [4]): 0.014
